Measurements published in patent publication US8962650B2, “Therapeutic agent for tumor” (Eisai R&D Management Co., Ltd., priority 2011, dated 2015).

System: human melanoma cell line (A375)
Experiment: Tumor proliferation inhibitory effect in nude mice transplanted with human melanoma cell line A375 (relative tumor volume)
Assay type: in vivo, mouse
Conditions: oral once daily 10 mL/kg (Compound A 1 mg/mL, PLX4032 10 mg/mL), A375 subcutaneous
Description: The present invention is described in more detail by way of Examples below. Example 1 Tumor Proliferation Inhibitory Effect of the Combined Use of Compound A and PLX4032 on a Human Melanoma Cell Line (A375)
Using five nude mice in one group (CAnN.Cg-Foxn1nu/CrlCrlj, female, Charles River Laboratories Japan, Inc.), the antitumor effect of administration of Compound A, PLX4032, or both of these compounds was evaluated. The human-derived melanoma cell line A375 (ATCC) was suspended in PBS (Wako Pure Chemical Industries, Ltd) at a density of 5×10^6 cells/ml, followed by thorough mixing. The resulting mixture was subcutaneously transplanted at the right flank of the body of each mouse in an amount of 0.1 mL. Fourteen days after transplantation, the major axis and the minor axis of a tumor were measured by a digital caliper (Digimatic™ caliper, Mitsutoyo Corporation). The mice were grouped so that the average value of tumor volume was nearly equal among the groups. Also, the tumor volume was calculated according to the equations below. Tumor volume (mm^3)=major axis (mm)×minor axis (mm)×minor axis (mm)/2
Compound A was dissolved in purified water at a concentration of 1 mg/mL. Also, PLX4032 was dissolved in DMSO at a concentration of 200 mg/ml. Further, the resulting solution was diluted 20-fold with a 1% aqueous solution of methylcellulose to prepare a 10 mg/mL PLX4032 suspension.
A control group, a Compound A group, a PLX4032 group, and a Compound A and PLX4032-combination group (hereinbelow, expressed as a combination group) were set up. The aqueous solution of Compound A or the PLX4032 suspension was orally administered to the mice in the Compound A group or the PLX4032 group, respectively, once daily at 10 mL/kg. To the combination group mice, the above drug solutions were each orally administered once daily at 10 mL/kg. The administration period was 23 days. Also, administration was not given to the control group mice.
The tumor volume was measured on the initial day of administration and on the 2nd, 5th, 7th, 9th, 12th, 14th, 16th, 19th, 21st, and 23rd days after initiation of administration. The ratio of the tumor volume on each day of measurement relative to the tumor volume on the initial day of administration was calculated as a relative tumor volume (hereinbelow, expressed as RTV). Further, the average value of RTV of mice in each group was calculated. The changes in the average value of RTV with time were shown in Table 1 and FIG. 1 and the value of each group on Day 23 was shown in FIG. 2.

[1] = Day 2 after initiation of administration
[2] = Day 5 after initiation of administration
[3] = Day 7 after initiation of administration
[4] = Day 9 after initiation of administration
[5] = Day 12 after initiation of administration
[6] = Day 14 after initiation of administration
[7] = Day 16 after initiation of administration
[8] = Day 19 after initiation of administration
[9] = Day 21 after initiation of administration
[10] = Day 23 after initiation of administration

SMILES: COc1cc2nccc(Oc3ccc(NC(=O)NC4CC4)c(Cl)c3)c2cc1C(N)=O [Compound A, 4-[3-chloro-4-(cyclopropylaminocarbonyl)aminophenoxy]-7-methoxy-6-quinolinecarboxamide]
- average relative tumor volume (RTV) [1]: 1.77
- average relative tumor volume (RTV) [2]: 2.62
- average relative tumor volume (RTV) [3]: 3.40
- average relative tumor volume (RTV) [4]: 3.85
- average relative tumor volume (RTV) [5]: 5.12
- average relative tumor volume (RTV) [6]: 5.40
- average relative tumor volume (RTV) [7]: 6.30
- average relative tumor volume (RTV) [8]: 7.89
- average relative tumor volume (RTV) [9]: 9.16
- average relative tumor volume (RTV) [10]: 10.17

SMILES: CCCS(=O)(=O)Nc1ccc(F)c(C(=O)c2c[nH]c3ncc(-c4ccc(Cl)cc4)cc23)c1F [PLX4032, N-(3-{[5-(4-chlorophenyl)-1H-pyrrolo[2,3-b]pyridin-3-yl]carbonyl}-2,4-difluorophenyl)propane-1-sulfonamide]
- average relative tumor volume (RTV) [1]: 0.98
- average relative tumor volume (RTV) [2]: 0.94
- average relative tumor volume (RTV) [3]: 1.00
- average relative tumor volume (RTV) [4]: 1.13
- average relative tumor volume (RTV) [5]: 1.46
- average relative tumor volume (RTV) [6]: 1.38
- average relative tumor volume (RTV) [7]: 1.52
- average relative tumor volume (RTV) [8]: 1.63
- average relative tumor volume (RTV) [9]: 1.80
- average relative tumor volume (RTV) [10]: 1.93
